As usually defined, the pIC50 is −log10 of the IC50, conventionally taken in molar units. As usually defined, the pEC50 is −log10 of the EC50, conventionally taken in molar units.

Here are results for 2 molecules from ChEMBL document CHEMBL5370648, “Rational Design of Bioorthogonally Activatable PROTAC for Tumor-Targeted Protein Degradation” (J Med Chem, 2023).

The nature of data set [1]: Retention time of the compound by HPLC method. It counts as physicochemical.
The test system of data set [2] is T47D. The experiment in a line: Cytotoxicity against human T47D cells assessed as inhbition of cell growth measured after 48 hrs by CCK-8 method. It is filed as functional, cell-based.
In data set [3] the test system is MDA-MB-231. The experiment in a line: Cytotoxicity against human MDA-MB-231 cells assessed as inhbition of cell growth measured after 48 hrs by CCK-8 method. It counts as functional, cell-based. As to conditions: MDA-MB-231, 48 h. (In general: Tetrazolium dyes change colour on reduction, which living cells bring about.)
Data set [4] concerns MCF7. In words: Cytotoxicity against human MCF7 cells assessed as inhbition of cell growth measured after 48 hrs by CCK-8 method. It counts as functional, cell-based. As to conditions: MCF7, 48 h.
Data set [5] concerns the target T1, von Hippel-Lindau disease tumor suppressor/Bromodomain-containing protein 4 (Homo sapiens, UniProt O60885+P40337). In words: PROTAC activity at BRD4/VHL E3 ligase in human T47D cells assessed as decrease in BRD4 expression incubated for 48 hrs by Western blot analysis. It counts as cell-based. (In western blotting, separated proteins are transferred to a membrane and probed.)

The target in data set [6] is T1, von Hippel-Lindau disease tumor suppressor/Bromodomain-containing protein 4. The experiment in a line: PROTAC activity at BRD4/VHL E3 ligase in human MDA-MB-231 cells assessed as decrease in BRD4 expression incubated for 48 hrs by Western blot analysis. It counts as cell-based.
Data set [7] has the same target. The experiment in a line: PROTAC activity at BRD4/VHL E3 ligase in human MCF7 cells assessed as decrease in BRD4 expression incubated for 48 hrs by Western blot analysis. It is filed as cell-based.
The target is the same in data set [8]. In words: PROTAC activity at BRD4/VHL E3 ligase in human T47D cells assessed as suppression of c-Myc expression incubated for 48 hrs by Western blot analysis. It is filed as cell-based.
For data set [9] the target is unchanged. The experiment in a line: PROTAC activity at BRD4/VHL E3 ligase in human T47D cells assessed as induction of degradation of intracellular BRD4 at 200 nM incubated for 48 hrs by immunofluorescence staining assay. It is filed as cell-based.
The target is the same in data set [10]. The experiment in a line: PROTAC activity at BRD4/VHL E3 ligase in human MDA-MB-231 cells assessed as induction of degradation of intracellular BRD4 at 200 nM incubated for 48 hrs by immunofluorescence staining assay. It is filed as cell-based.
The target is the same in data set [11]. In words: PROTAC activity at BRD4/VHL E3 ligase in human MCF7 cells assessed as induction of degradation of intracellular BRD4 at 200 nM incubated for 48 hrs by immunofluorescence staining assay. It is filed as cell-based.
Data set [12] has the same target. In words: PROTAC activity at BRD4/VHL E3 ligase in human T47D cells assessed as induction of degradation of BRD4 at upto 1000 nM incubated for 48 hrs in presence of MG132 by immunofluorescence staining assay. It counts as cell-based.
The target is the same in data set [13]. In words: PROTAC activity at BRD4/VHL E3 ligase in human T47D cells assessed as induction of degradation of BRD4 at upto 1000 nM incubated for 48 hrs in presence of MLN4924 by immunofluorescence staining assay. It is filed as cell-based.
For data set [14] the target is unchanged. In words: PROTAC activity at BRD4/VHL E3 ligase in human T47D cells assessed as degradation of BRD4 expression incubated for 48 hrs by Western blot analysis. It is filed as cell-based.
Data set [15] shares this target. The experiment in a line: PROTAC activity at BRD4/VHL E3 ligase in human MDA-MB-231 cells assessed as degradation of BRD4 expression incubated for 48 hrs by Western blot analysis. It is filed as cell-based.
The target is the same in data set [16]. In words: PROTAC activity at BRD4/VHL E3 ligase in human MCF7 cells assessed as degradation of BRD4 expression incubated for 48 hrs by Western blot analysis. It counts as cell-based.
Data set [17] shares this target. In words: PROTAC activity at BRD4/VHL E3 ligase in human MDA-MB-231 cells assessed as suppression of c-Myc expression incubated for 48 hrs by Western blot analysis. It counts as cell-based.
Data set [18] has the same target. In words: PROTAC activity at BRD4/VHL E3 ligase in human MCF7 cells assessed as suppression of c-Myc expression incubated for 48 hrs by Western blot analysis. It is filed as cell-based.
Data set [19] has the same target. In words: PROTAC activity at BRD4/VHL E3 ligase in human T47D cells assessed as activation of caspase-3 expression incubated for 48 hrs by Western blot analysis. It is filed as cell-based.
The target is the same in data set [20]. In words: PROTAC activity at BRD4/VHL E3 ligase in human MDA-MB-231 cells assessed as activation of caspase-3 expression incubated for 48 hrs by Western blot analysis. It is filed as cell-based.
For data set [21] the target is unchanged. The experiment in a line: PROTAC activity at BRD4/VHL E3 ligase in human MCF7 cells assessed as activation of caspase-3 expression incubated for 48 hrs by Western blot analysis. It counts as cell-based.
The test system of data set [22] is MCF7. In words: Antitumor activity against human MCF7 cells xenografted in BALB/c nude mouse assessed as tumor growth inhibition at 10 mg/kg measured after 16 days. It counts as functional, organism-based. The following applies: time 16.0 day.
The test system of data set [23] is MCF7. In words: Antitumor activity against human MCF7 cells xenografted in BALB/c nude mouse assessed as fold increase in tumor volume at 10 mg/kg measured at day 23 post injection. It is filed as functional. The following applies: time 23 day.
A short description of data set [24]: Toxicity in BALB/c nude mouse assessed as animal death at 10 mg/kg measured after 16 days. It counts as organism-based. The following applies: in vivo, 384 h, time 16 day.
Data set [25] has as its system MCF7. The experiment in a line: Antitumor activity against human MCF7 cells xenografted in BALB/c nude mouse model assessed as inhibition of tumor cell proliferation by measuring reduction in Ki67 staining at 10 mg/kg administered for 16 days by immunohistochemical analysis. It counts as functional, organism-based. The following applies: time 16.0 day.
The target of data set [26] is T1, von Hippel-Lindau disease tumor suppressor/Bromodomain-containing protein 4. The experiment in a line: In vivo PROTAC activity at BRD4/VHL E3 ligase in BALB/c nude mouse xenografted with human MCF7 cells assessed as reduction in BRD4 protein level in tumor 10 mg/kg measured after 48 hrs by Western blot analysis. It is filed as functional, organism-based. (A xenograft is tissue or cells of one species grown in another, often human tumour cells in immunodeficient mice.)

Data set [27] has as its system MCF7. The experiment in a line: Antitumor activity against human MCF7 cells xenografted in BALB/c nude mouse assessed as apoptosis at 10 mg/kg measured after 48 hrs by Western blot analysis. It is filed as functional, organism-based.
The subject of data set [28] is T47D. The experiment in a line: Cytotoxicity against human T47D cells assessed as inhbition of cell growth at 20.0 uM measured after 48 hrs by CCK-8 method. It counts as functional, cell-based.
The test system of data set [29] is MDA-MB-231. The experiment in a line: Cytotoxicity against human MDA-MB-231 cells assessed as inhbition of cell growth at 20.0 uM measured after 48 hrs by CCK-8 method. It counts as functional, cell-based.

pEC50, pIC50: −log10 of the molar value. Active and inactive are the calls of the source. No cut-off for these calls is given here.

T1 sequence (P40337 whole entry, looked up, other chains not shown): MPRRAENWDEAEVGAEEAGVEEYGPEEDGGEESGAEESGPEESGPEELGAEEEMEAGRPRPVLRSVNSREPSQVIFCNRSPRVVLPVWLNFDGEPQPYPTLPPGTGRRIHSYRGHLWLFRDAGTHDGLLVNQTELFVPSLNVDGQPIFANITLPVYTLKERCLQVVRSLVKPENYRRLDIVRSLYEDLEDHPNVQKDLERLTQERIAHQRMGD

`Cc1ncsc1-c1ccc([C@H](C)NC(=O)[C@@H]2C[C@@H](O)CN2C(=O)[C@@H](NC(=O)COCCOCCOCCNC(=O)CC2N=C(c3ccc(Cl)cc3)c3c(sc(C)c3C)-n3c(C)nnc32)C(C)(C)C)cc1` (stereo not given in full): the Retention_time in [1] worked out at 18.96 min. For the same molecule, the results for the negative-log IC50 (pIC50) in data set [2], in data set [3] and in [4] were 6.60, 6.65 and 6.74, respectively. Moreover, the negative logarithm of the EC50 (pEC50) in data set [5] was 7.25; in data set [6], 8.40; in [7], 7.30. Further, the result in data set [8], in data set [9], in data set [10], in data set [11], in data set [14] and in data set [15] was Active. The outcome in data set [16], in [17], in data set [18], in data set [19], in data set [20] and in [21] was Active. In addition, the result in data set [22], in data set [25], in [26] and in data set [27] was Active. For the same molecule, the result in data set [12] and in data set [13] was inactive. Also, the “fold change (FC)” value in [23] stood at 1.58. For the same molecule, the Activity result in data set [24] is reported as “Toxic”.
In turn, `Cc1ncsc1-c1ccc([C@H](C)NC(=O)[C@@H]2C[C@@H](OC(=O)OC3/C=C/CCCCC3)CN2C(=O)[C@@H](NC(=O)COCCOCCOCCNC(=O)CC2N=C(c3ccc(Cl)cc3)c3c(sc(C)c3C)-n3c(C)nnc32)C(C)(C)C)cc1` (stereo not given in full) gave a Retention_time in data set [1] of 19.3 min. The outcome in [28] and in data set [29] was inactive.
